The source of these data is publication PMC8025945 (Journal of medicinal chemistry, 2017).

Like-named read-outs stand apart in the source and are kept apart here. Some results are limits rather than exact numbers.

In data set [1] the test system is NCI-60 human tumor cell lines. Particulars: NCI-60 human tumor cell lines (all cell lines tested).
Data set [2] relates to HOP-62. To be noted: human, HOP-62 lung tumor cells.
In data set [3] the test system is OVCAR-3. To be noted: human, OVCAR-3 ovarian tumor cells.
In another data set the target is T1, recombinant Top1 (Homo sapiens, UniProt P11387).
T1 sequence (P11387 1-765): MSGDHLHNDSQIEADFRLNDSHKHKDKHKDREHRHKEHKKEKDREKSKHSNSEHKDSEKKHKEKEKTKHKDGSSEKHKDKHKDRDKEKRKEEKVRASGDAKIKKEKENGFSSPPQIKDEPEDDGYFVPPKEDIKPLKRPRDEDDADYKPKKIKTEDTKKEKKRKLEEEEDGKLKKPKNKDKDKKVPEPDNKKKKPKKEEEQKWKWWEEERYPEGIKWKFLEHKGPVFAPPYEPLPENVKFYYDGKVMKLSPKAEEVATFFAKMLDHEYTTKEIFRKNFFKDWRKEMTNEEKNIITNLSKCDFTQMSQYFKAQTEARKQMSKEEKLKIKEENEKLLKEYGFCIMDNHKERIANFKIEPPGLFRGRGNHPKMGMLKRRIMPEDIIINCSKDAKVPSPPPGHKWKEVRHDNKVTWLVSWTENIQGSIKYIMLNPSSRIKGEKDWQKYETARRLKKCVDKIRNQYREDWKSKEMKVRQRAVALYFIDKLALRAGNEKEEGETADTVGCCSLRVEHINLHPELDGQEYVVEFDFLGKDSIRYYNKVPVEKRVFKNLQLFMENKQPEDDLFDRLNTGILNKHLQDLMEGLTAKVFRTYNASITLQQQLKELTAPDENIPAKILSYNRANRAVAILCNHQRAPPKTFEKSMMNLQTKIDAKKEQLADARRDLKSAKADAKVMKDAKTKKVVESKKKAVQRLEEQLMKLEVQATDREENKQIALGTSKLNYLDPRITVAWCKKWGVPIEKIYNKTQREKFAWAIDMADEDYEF
The experiment in a line: Top1-mediated DNA cleavage assay. In kind it is biochemical. Particulars: semiquantitative scale relative to 1 μM MJ-III-65 (6) and 1 μM camptothecin (1).

Data set [4] has as its system HCT-116. Particulars: human, HCT-116 colon tumor cells.
Data set [5] deals with DU-145. To be noted: human, DU-145 prostate tumor cells.
In data set [6] the test system is OVCAR-3. The experiment in a line: NCI-60 human tumor cell line screen, ovarian OVCAR-3. Particulars: read-out: cytotoxicity (GI50) ovarian OVCAR-3; 50% growth inhibition.
For another data set, the system named is UACC-62. The experiment in a line: NCI-60 human tumor cell line screen, melanoma UACC-62. To be noted: read-out: cytotoxicity (GI50) melanoma UACC-62; 50% growth inhibition.
Data set [7] has as its system DU-145. The experiment in a line: NCI-60 human tumor cell line screen, prostate DU-145. Particulars: read-out: cytotoxicity (GI50) prostate DU-145; 50% growth inhibition.
The test system of data set [8] is NCI-60 human tumor cell lines. The experiment in a line: NCI-60 mean graph midpoint. To be noted: read-out: MGM GI50.
Another data set concerns SF-539. The experiment in a line: NCI-60 human tumor cell line screen, CNS SF-539. To be noted: read-out: cytotoxicity (GI50) CNS SF-539; 50% growth inhibition.
Another data set deals with SN12C. The experiment in a line: NCI-60 human tumor cell line screen, renal SN12C. To be noted: read-out: cytotoxicity (GI50) renal SN12C; 50% growth inhibition.
The subject of another data set is MCF-7. The experiment in a line: NCI-60 human tumor cell line screen, breast MCF-7. To be noted: read-out: cytotoxicity (GI50) breast MCF-7; 50% growth inhibition.
The subject of data set [9] is HCT-116. The experiment in a line: NCI-60 human tumor cell line screen, colon HCT-116. To be noted: read-out: cytotoxicity (GI50) colon HCT-116; 50% growth inhibition.
Data set [10] deals with HOP-62. The experiment in a line: NCI-60 human tumor cell line screen, lung HOP-62. Particulars: read-out: cytotoxicity (GI50) lung HOP-62; 50% growth inhibition.

What is called GI50 is the concentration giving 50% growth inhibition. For the molecule `O=C1c2ccccc2-c2c1c1ccc(Cl)cc1c(=O)n2CCCn1ccnc1` [compound 8], the GI50 in [1] was found to be 0.229 µM; with HOP-62 [2], 0.186 µM; in the data set on OVCAR-3 [3], 0.407 µM; in the data set on HCT-116 [4] it was 0.107 µM; in the data set with DU-145 [5], 0.309 µM. Also, the “enzyme inhibitory activity Top1 (compound-induced DNA cleavage score)” value on recombinant Top1 is “+++”.

For the molecule `COc1cnc2c(c1)C(=O)c1c-2n(CCCn2ccnc2)c(=O)c2cc([N+](=O)[O-])ccc12` [compound 9], the GI50 was 0.025 µM with OVCAR-3 [6]; under 0.01 µM with UACC-62; under 0.01 µM in the data set with DU-145 [7]; 0.021 µM in data set [8]; under 0.01 µM with SF-539; under 0.01 µM in the data set with SN12C. Further, the GI50 in the data set on MCF-7, with HCT-116 [9] and in the data set with HOP-62 [10] was under 0.01 µM each time. The zebrafish survival percentage in the data set with zebrafish embryos (0.1 μM in medium, 48 h after fertilization) came out at 0 ± 0 %; in the data set with zebrafish embryos (0.1 μM in medium, 72 h after fertilization), 0 ± 0 %; in the data set with zebrafish embryos (0.1 μM in medium, 96 h after fertilization) it was 0 ± 0 %; in the data set on zebrafish embryos (0.1 μM in medium, 120 h after fertilization), 0 ± 0 %; in the data set on zebrafish embryos (1 μM in medium, 24 h after fertilization), 0 ± 0 %; with zebrafish embryos (1 μM in medium, 48 h after fertilization), 0 ± 0 %. Moreover, the zebrafish survival percentage in the data set on zebrafish embryos (1 μM in medium, 72 h after fertilization) was determined as 0 ± 0 %; in the data set with zebrafish embryos (1 μM in medium, 96 h after fertilization), 0 ± 0 %; with zebrafish embryos (1 μM in medium, 120 h after fertilization), 0 ± 0 %; in the data set on zebrafish embryos (10 μM in medium, 24 h after fertilization), 0 ± 0 %; in the data set with zebrafish embryos (10 μM in medium, 48 h after fertilization), 0 ± 0 %; with zebrafish embryos (10 μM in medium, 72 h after fertilization) it was 0 ± 0 %. Also, the zebrafish survival percentage in the data set on zebrafish embryos (10 μM in medium, 96 h after fertilization) is 0 ± 0 %; in the data set on zebrafish embryos (10 μM in medium, 120 h after fertilization), 0 ± 0 %. In addition, the “lethality in zebrafish (comparison between compounds)” value in the data set with zebrafish embryos (statistical comparison of 9, 16b and 17b) is reported as “significantly more lethal”.
